pIC50: −log10 of the molar value. Read-outs that look alike come from different tables or passages of the source.
Key:
Format in all cases: biochemical
CLK3 = biological target: T1, CLK3 (Homo sapiens, UniProt P49761); assay: kinase selectivity panel
T1 construct: kinase selectivity panel enzyme

[1] = biological target: T2, CLK2 (Cdc2-like kinase 2) (Homo sapiens, UniProt P49760); assay: Z'LYTE FRET peptide kinase assay
T2 construct: commercial enzyme of Thermo Fisher SelectScreen service
Source text: Z'LYTE FRET peptide kinase assay on CLK2 (Cdc2-like kinase 2)

[2] = biological target: T3, TTK (Threonine tyrosine kinase; Monopolar Spindle 1, Mps1) (Homo sapiens, UniProt P33981); assay: kinase selectivity panel
T3 construct: kinase selectivity panel enzyme
T3 sequence (P33981 1-857): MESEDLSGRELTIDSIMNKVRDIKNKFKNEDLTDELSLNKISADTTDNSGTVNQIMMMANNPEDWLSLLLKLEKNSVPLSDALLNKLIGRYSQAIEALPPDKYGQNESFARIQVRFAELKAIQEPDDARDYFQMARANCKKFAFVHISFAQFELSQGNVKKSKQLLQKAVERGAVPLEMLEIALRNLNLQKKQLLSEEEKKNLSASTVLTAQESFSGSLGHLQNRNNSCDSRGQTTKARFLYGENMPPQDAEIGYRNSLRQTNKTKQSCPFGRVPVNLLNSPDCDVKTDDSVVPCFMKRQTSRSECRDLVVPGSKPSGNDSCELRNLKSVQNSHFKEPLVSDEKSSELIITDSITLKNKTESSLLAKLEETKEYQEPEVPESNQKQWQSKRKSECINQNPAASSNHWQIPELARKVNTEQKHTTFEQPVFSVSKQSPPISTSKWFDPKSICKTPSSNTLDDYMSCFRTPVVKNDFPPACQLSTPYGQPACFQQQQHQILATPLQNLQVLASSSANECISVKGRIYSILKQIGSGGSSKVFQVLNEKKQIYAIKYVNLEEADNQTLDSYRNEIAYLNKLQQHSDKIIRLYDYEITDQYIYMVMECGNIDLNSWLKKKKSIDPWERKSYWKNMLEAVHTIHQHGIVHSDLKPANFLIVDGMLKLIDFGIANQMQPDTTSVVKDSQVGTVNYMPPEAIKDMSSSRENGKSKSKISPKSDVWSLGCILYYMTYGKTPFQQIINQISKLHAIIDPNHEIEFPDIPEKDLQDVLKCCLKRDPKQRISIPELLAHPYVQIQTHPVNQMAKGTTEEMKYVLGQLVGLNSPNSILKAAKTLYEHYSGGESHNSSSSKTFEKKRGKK

T2 sequence (P49760 whole entry): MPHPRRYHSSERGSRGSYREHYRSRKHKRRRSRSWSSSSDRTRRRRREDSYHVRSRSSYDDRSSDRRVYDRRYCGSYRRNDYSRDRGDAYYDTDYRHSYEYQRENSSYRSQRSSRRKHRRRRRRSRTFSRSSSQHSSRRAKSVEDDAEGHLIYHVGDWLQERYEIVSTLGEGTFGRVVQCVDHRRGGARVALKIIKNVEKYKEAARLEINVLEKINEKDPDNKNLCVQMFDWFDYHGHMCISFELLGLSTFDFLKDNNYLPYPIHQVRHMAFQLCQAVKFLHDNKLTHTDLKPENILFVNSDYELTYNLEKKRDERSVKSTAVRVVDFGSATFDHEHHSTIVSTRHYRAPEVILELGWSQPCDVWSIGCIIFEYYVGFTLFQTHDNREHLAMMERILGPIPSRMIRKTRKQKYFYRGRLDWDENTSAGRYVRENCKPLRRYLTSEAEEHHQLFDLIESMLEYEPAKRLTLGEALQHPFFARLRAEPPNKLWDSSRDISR
T1 sequence (P49761 whole entry): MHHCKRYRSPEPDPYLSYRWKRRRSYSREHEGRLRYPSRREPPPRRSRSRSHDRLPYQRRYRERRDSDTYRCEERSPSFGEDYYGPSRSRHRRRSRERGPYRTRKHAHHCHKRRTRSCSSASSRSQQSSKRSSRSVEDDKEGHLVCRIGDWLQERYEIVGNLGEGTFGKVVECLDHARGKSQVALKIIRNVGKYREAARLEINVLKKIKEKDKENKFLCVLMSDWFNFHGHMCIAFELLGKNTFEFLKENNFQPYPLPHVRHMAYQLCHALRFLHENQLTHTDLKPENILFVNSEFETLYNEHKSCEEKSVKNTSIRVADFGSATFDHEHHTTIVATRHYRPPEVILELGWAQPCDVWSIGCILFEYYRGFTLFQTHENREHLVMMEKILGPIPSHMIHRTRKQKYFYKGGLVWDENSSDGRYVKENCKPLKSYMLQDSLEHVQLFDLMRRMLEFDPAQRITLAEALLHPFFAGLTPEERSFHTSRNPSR

inhibition at 1 µM (CLK3)	pIC50 [1]	inhibition at 1 µM [2]	pIC50 ([1]; ATP and peptide substrate, 1% DMSO, room temperature, 60 min)	SMILES
46%	6.21	43%	–	CC(c1ccccc1)n1c2ccccc2c2c(N)ncnc21 (centres unmarked) [compound 670551, Compound 670551]
–	5.65	–	–	Nc1ncnc2oc(-c3ccccc3)c(-c3ccccc3)c12 [compound 153298, 153298]
–	–	–	5.88	CSc1nc(Cl)cc(Sc2nc(N)nc3nc[nH]c23)n1 [compound 51564, 51564]
